Values quoted from earlier work in patent publication US20250177439A1, “LOW DOSE PRE-MIX FEED FOR TRACE MINERAL SUPPLEMENTATION” (Chemlock Operating LLC d/b/a Chemlock Nutrition, priority 2023, published 2025).

Conditions: 105-140 ppm zinc compared to 132-177 pmm of zinc

## Zinc chloride hydroxide monohydrate [zinc hydroxy chloride]
  skin strength: enhanced the skin strength
